Measured values taken from US9012489B2, “Phenyl-3-aza-bicyclo[3.1.0]hex-3-yl-methanones and the use thereof as medicament” (Boehringer Ingelheim International GmbH, priority 2011, dated 2015).

target: T1, GlyT1 transporter (Homo sapiens, UniProt P48067); assay: GlyT1 assay: 3H-glycine uptake into SK-N-MC cells (Cytostar-T format); type: cell-based; details: glycine uptake in human SK-N-MC cells endogenously expressing GlyT1; 500 nM glycine, 1% DMSO, signal recorded over 60 min
T1 construct: endogenously expressing the GlyT1 transporter; host or cells: SK-N-MC human neuroblastoma cells
T1 sequence (P48067 1-706): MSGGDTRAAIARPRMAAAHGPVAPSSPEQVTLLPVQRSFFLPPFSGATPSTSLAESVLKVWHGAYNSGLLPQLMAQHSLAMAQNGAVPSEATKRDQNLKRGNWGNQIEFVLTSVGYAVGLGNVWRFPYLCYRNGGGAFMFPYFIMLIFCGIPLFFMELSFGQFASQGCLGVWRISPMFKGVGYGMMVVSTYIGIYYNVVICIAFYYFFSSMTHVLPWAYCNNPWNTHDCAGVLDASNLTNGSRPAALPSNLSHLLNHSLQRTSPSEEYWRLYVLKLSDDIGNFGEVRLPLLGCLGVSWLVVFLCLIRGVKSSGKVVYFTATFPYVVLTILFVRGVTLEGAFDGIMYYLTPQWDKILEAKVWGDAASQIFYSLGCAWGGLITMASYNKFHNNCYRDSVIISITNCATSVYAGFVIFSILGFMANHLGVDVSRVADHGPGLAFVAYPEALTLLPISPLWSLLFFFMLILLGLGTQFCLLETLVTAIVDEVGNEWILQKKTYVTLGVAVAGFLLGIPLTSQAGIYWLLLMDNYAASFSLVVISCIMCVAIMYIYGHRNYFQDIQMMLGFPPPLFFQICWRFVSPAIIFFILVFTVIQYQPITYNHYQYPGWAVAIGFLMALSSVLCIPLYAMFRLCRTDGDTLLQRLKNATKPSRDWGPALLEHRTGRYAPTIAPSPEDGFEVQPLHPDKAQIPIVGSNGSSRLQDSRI
In short: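 Uptake slopes, measured over 60 min from the linear kinetic range, give IC50 from 8 compound concentrations, with 10 μM RG-1678 setting background. Substrate is 500 nM glycine (250 nM ³H, 250 nM unlabelled) in HBSS/5 mM alanine, 1% DMSO, after roughly 5-10 min compound preincubation. Cells: confluent SK-N-MC endogenously expressing human GlyT1.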

SMILES | IC50 [nM]
C[C@H](Oc1ccc(S(C)(=O)=O)cc1C(=O)N1CC2CC2(c2nccc(C(F)(F)F)n2)C1)C(F)(F)F (mixture of isomers) [Example 15, [5-Methanesulfonyl-2-(2,2,2-trifluoro-1-methyl-ethoxy)-phenyl]-[1-(4-trifluoromethyl-pyrimidin-2-yl)-3-aza-bicyclo[3.1.0]hex-3-yl]-methanone] | 14
COC1(c2nc(C34CC3CN(C(=O)c3cc(S(C)(=O)=O)ccc3O[C@H](C)C(F)(F)F)C4)no2)CC1 (mixture of isomers) [Example 119, [5-Methanesulfonyl-2-(2,2,2-trifluoro-1-methyl-ethoxy)-phenyl]-{1-[5-(1-methoxy-cyclopropyl)-[1,2,4]oxadiazol-3-yl]-3-aza-bicyclo[3.1.0]hex-3-yl}-methanone] | 11
CC(C)Oc1ccc(S(C)(=O)=O)cc1C(=O)N1CC2CC2(c2noc(C(F)(F)F)n2)C1 (single isomer, unassigned) [Example 98, (2-Isopropoxy-5-methanesulfonyl-phenyl)-[1-(5-trifluoromethyl-[1,2,4]oxadiazol-3-yl)-3-aza-bicyclo[3.1.0]hex-3-yl]-methanone] | 1890
C[C@H](Oc1ccc(S(C)(=O)=O)cc1C(=O)N1CC2CC2(c2noc(C3CC3)n2)C1)C(F)(F)F (mixture of isomers) [Example 9, [1-(5-Cyclopropyl-[1,2,4]oxadiazol-3-yl)-3-aza-bicyclo[3.1.0]hex-3-yl]-[5-methanesulfonyl-2-(2,2,2-trifluoro-1-methyl-ethoxy)-phenyl]-methanone] | 18
C[C@@H](Oc1ccc(S(C)(=O)=O)cc1C(=O)N1CC2CC2(c2noc(C3(C(F)(F)F)CC3)n2)C1)C(F)(F)F (single isomer, unassigned) [Example 69, [5-Methanesulfonyl-2-(2,2,2-trifluoro-1-methyl-ethoxy)-phenyl]-{1-[5-(1-trifluoromethyl-cyclopropyl)-[1,2,4]oxadiazol-3-yl]-3-aza-bicyclo[3.1.0]hex-3-yl}-methanone] | 3
C[C@H](Oc1ccc(C#N)cc1C(=O)N1CC2CC2(c2noc(C(F)(F)F)n2)C1)C(F)(F)F (single isomer, unassigned) [Example 89, 4-(2,2,2-Trifluoro-1-methyl-ethoxy)-3-[1-(5-trifluoromethyl-[1,2,4]oxadiazol-3-yl)-3-aza-bicyclo[3.1.0]hexane-3-carbonyl]-benzonitrile] | 97
C[C@H](Oc1ccc(S(C)(=O)=O)cc1C(=O)N1CC2CC2(c2nnc(C3(C(F)(F)F)CC3)o2)C1)C(F)(F)F (mixture of isomers) [Example 151, [5-Methanesulfonyl-2-(2,2,2-trifluoro-1-methyl-ethoxy)-phenyl]-{1-[5-(1-trifluoromethyl-cyclopropyl)-[1,3,4]oxadiazol-2-yl]-3-aza-bicyclo[3.1.0]hex-3-yl}-methanone] | 10
C[C@@H](Oc1ccc(S(C)(=O)=O)cc1C(=O)N1CC2CC2(c2nnc(C3(C(F)(F)F)CC3)o2)C1)C(F)(F)F (single isomer, unassigned) [Example 149, [5-Methanesulfonyl-2-(2,2,2-trifluoro-1-methyl-ethoxy)-phenyl]-{1-[5-(1-trifluoromethyl-cyclopropyl)-[1,3,4]oxadiazol-2-yl]-3-aza-bicyclo[3.1.0]hex-3-yl}-methanone] | 8
C[C@@H](Oc1ccc(S(C)(=O)=O)cc1C(=O)N1CC2CC2(c2noc(C3CC3)n2)C1)C(F)(F)F (mixture of isomers) [Example 41, [1-(5-Cyclopropyl-[1,2,4]oxadiazol-3-yl)-3-aza-bicyclo[3.1.0]hex-3-yl]-[5-methanesulfonyl-2-(2,2,2-trifluoro-1-methyl-ethoxy)-phenyl]-methanone] | 6
Cc1nc(C23CC2CN(C(=O)c2cc(S(C)(=O)=O)ccc2O[C@H](C)C(F)(F)F)C3)no1 (single isomer, unassigned) [Example 42, [5-Methanesulfonyl-2-(2,2,2-trifluoro-1-methyl-ethoxy)-phenyl]-[1-(5-methyl-[1,2,4]oxadiazol-3-yl)-3-aza-bicyclo[3.1.0]hex-3-yl]-methanone] | 6
C[C@@H](Oc1ccc(S(C)(=O)=O)cc1C(=O)N1CC2CC2(c2nnc(C3CC3)o2)C1)C(F)(F)F (mixture of isomers) [Example 146, [1-(5-Cyclopropyl-[1,3,4]oxadiazol-2-yl)-3-aza-bicyclo[3.1.0]hex-3-yl]-[5-methanesulfonyl-2-(2,2,2-trifluoro-1-methyl-ethoxy)-phenyl]-methanone] | 9
CCS(=O)(=O)c1ccc(O[C@H](C)C(F)(F)F)c(C(=O)N2CC3CC3(c3nccc(C(F)(F)F)n3)C2)c1 (mixture of isomers) [Example 76, [5-Ethanesulfonyl-2-(2,2,2-trifluoro-1-methyl-ethoxy)-phenyl]-[1-(4-trifluoromethyl-pyrimidin-2-yl)-3-aza-bicyclo[3.1.0]hex-3-yl]-methanone] | 10

More lines, now with the values ahead:

IC50 [nM] | SMILES
31 | C[C@H](Oc1ccc(S(C)(=O)=O)cc1C(=O)N1CC2CC2(c2nnc(C(F)(F)F)o2)C1)C(F)(F)F (mixture of isomers) [Example 125, [5-Methanesulfonyl-2-(2,2,2-trifluoro-1-methyl-ethoxy)-phenyl]-[1-(5-trifluoromethyl-[1,3,4]oxadiazol-2-yl)-3-aza-bicyclo[3.1.0]hex-3-yl]-methanone]
17 | C[C@@H](Oc1ccc(S(C)(=O)=O)cc1C(=O)N1CC2CC2(c2nccc(C(F)(F)F)n2)C1)C(F)(F)F (mixture of isomers) [Example 72, [5-Methanesulfonyl-2-(2,2,2-trifluoro-1-methyl-ethoxy)-phenyl]-[1-(4-trifluoromethyl-pyrimidin-2-yl)-3-aza-bicyclo[3.1.0]hex-3-yl]-methanone]
6 | C[C@@H](Oc1ccc(S(C)(=O)=O)cc1C(=O)N1CC2CC2(c2ncc(C(F)(F)F)o2)C1)C(F)(F)F (mixture of isomers) [Example 128, [5-Methanesulfonyl-2-(2,2,2-trifluoro-1-methyl-ethoxy)-phenyl]-[1-(5-trifluoromethyl-oxazol-2-yl)-3-aza-bicyclo[3.1.0]hex-3-yl]-methanone]
886 | C[C@H](Oc1ccc(S(C)(=O)=O)cc1C(=O)N1CC2CC2(c2cc(C(F)(F)F)on2)C1)C(F)(F)F (single isomer, unassigned) [Example 48, [5-Methanesulfonyl-2-(2,2,2-trifluoro-1-methyl-ethoxy)-phenyl]-[1-(5-trifluoromethyl-isoxazol-3-yl)-3-aza-bicyclo[3.1.0]hex-3-yl]-methanone]
15 | Cc1cc(C23CC2CN(C(=O)c2cc(S(C)(=O)=O)ccc2O[C@@H](C)C(F)(F)F)C3)no1 (mixture of isomers) [Example 52, [5-Methanesulfonyl-2-(2,2,2-trifluoro-1-methyl-ethoxy)-phenyl]-[1-(5-methyl-isoxazol-3-yl)-3-aza-bicyclo[3.1.0]hex-3-yl]-methanone]
26 | Cc1nc(C23CC2CN(C(=O)c2cc(S(C)(=O)=O)ccc2O[C@@H](C)C(F)(F)F)C3)co1 (mixture of isomers) [Example 32, [5-Methanesulfonyl-2-(2,2,2-trifluoro-1-methyl-ethoxy)-phenyl]-[1-(2-methyl-oxazol-4-yl)-3-aza-bicyclo[3.1.0]hex-3-yl]-methanone]
